According to patent US20250161228A1, “COMPOSITIONS COMPRISING ULTRAFINE BUBBLES AND METHODS OF USING THEREOF IN A METHOD OF PRODUCING AND DELIVERING ACTIVE PHARMACEUTICAL INGREDIENTS AND OTHER DISSOLVED SOLUTES” (Hydrosome IP, LLC, priority 2023, published 2025):

Test system: Human embryonic kidney (HEK) cells
Test: Intracellular zinc uptake study, colorimetric assay at 540 nm
Assay type: cell-based
Procedure: Human embryonic kidney (HEK) cells were treated with a composition prepared in accordance with the disclosure, the composition comprising zinc in a Cellular Hydration Water Advanced Zinc Formulation (Zinc Formulation) to test intracellular zinc uptake in vitro. The composition comprised 93 micromolar zinc (II) ions. The HEK cells were treated with compositions comprising 10%, 50%, or 100% Zinc Formulation. Zinc content was measured at 15, 30, 45, and 60 minutes using a colorimetric assay measuring light absorbance at 540 nm. The changes in intracellular zinc content were compared to a control group of HEK cells treated with a ZnSO4 solution.

O=S(=O)([O-])[O-].[Zn+2] [ZnSO4]
increase in intracellular zinc content (10% composition or its ZnSO4 control, 30 minutes): 20.4%
increase in intracellular zinc content (50% composition or its ZnSO4 control, 15 minutes): 42%
increase in intracellular zinc content (50% composition or its ZnSO4 control, 30 minutes): 29.6%
increase in intracellular zinc content (50% composition or its ZnSO4 control, 60 minutes): 42.2%
